The record followed here is patent US7511074B2, “Tetrafluorobenzyl derivatives and pharmaceutical composition for preventing and treating acute and chronic neurodegenerative diseases in central nervous system containing the same” (AmKor Pharma, Inc., priority 2002, dated 2009).

For experiment [1], the system named is NMDA receptor. Nature of the experiment: Whole cell recording of NMDA-induced inward currents in cultured cortical neurons. The format is cell-based, mouse. The protocol: Typical NMDA-induced inward currents (NMDA currents) were evoked by applying 300 μM NMDA to cortical neurons which were held at […]. Successive application of various concentrations of 2-Hydroxy-TTBA reduced the response elicited by 300 μM NMDA in a concentration-dependent manner (n=8).
Cortical neurons were treated with 100 μM 2-Hydroxy-TTBA, washed thoroughly, and then applied with 300 μM NMDA.
Whole cell recordings were performed on cortical cell cultures at room temperature as described [Seo et al., J. Pharmacol. Exp. Ther., 299:377-384 (2001)]. Typical NMDA-induced inward currents (NMDA currents) were evoked immediately after applying 300 μM NMDA to cultured cortical neurons which were held at −70 mV.

Experiment [2] relates to C57/BL6 mice, MPTP. The experiment is described as follows: Dopaminergic neuronal death in substantia nigra after MPTP injection. It counts as in vivo, mouse. The conditions noted are these: 25 or 50 mg/kg ip every 12 hr, MPTP 40 mg/kg s.c. The protocol: Bright field photomicrographs showing dopaminergic neurons in the substantia nigra immunostained with anti-tyrosine hydroxylase (TH) antibody 3 d following sham control (A) or the single daily injection of 1-methyl-4-phenyl-1,2,3,6-tetrahydropyridine (MPTP, 40 mg/kg, SC) in C57/BL6 mice, alone (B) or with intraperitoneal injections (2 times per day) of 2-Hydroxy-TTBA (C, 25 mg/kg; D, 50 mg/kg) prior to MPTP administration.
Quantification of TH-positive dopaminergic neurons in the substantia nigral sections 3 d following the single daily injection of (MPTP, 40 mg/kg, SC), alone or with pretreatment with 2-Hydroxy-TTBA as described above. *, Significant difference from the control, p<0.05 using ANOVA and Student-Neuman-Keuls' test.
Bright field photomicrographs showing dopaminergic neurons in the substantia nigra immunostained with anti-tyrosine hydroxylase (TH) antibody […] following sham control (A) or the single daily injection of 1-methyl-4-phenyl-1,2,3,6-tetrahydropyridine (MPTP, 40 mg/kg, SC) in C57/BL6 mice, alone (B) or with intraperitoneal injections (2 times per day) of 2-Hydroxy-TTBA (C, 25 mg/kg; D, 50 mg/kg) prior to MPTP administration.
C57/BL6 mice (male, 8 weeks) received the injections of 40 mg/kg MPTP (s.c.), alone or with 25 or 50 mg/kg 2-Hydroxy-TTBA (ip) every 12 hr per day beginning 30 min before MPTP injection. […]

The test system of experiment [3] is Mouse cortical cell cultures. The experiment is described as follows: SNP (sodium nitroprusside) cytotoxicity in mixed cortical cell cultures (LDH assay). It counts as cell-based. The conditions noted are these: continuous 5 μM SNP; LDH 24 hr later. The protocol: Mouse cortical cell cultures (DIV 12-14) were exposed to continuously 5 μM sodium nitroprusside (SNP), alone (●) or with inclusion of 0.1-10 mM aspirin (◯), 1-100 μM trolox (▾), or 0.1-10 μM 2-Hydroxy-TTBA (∇). Neuronal death was analyzed 24 hr later by measuring levels of LDH released into the bathing medium, mean ±SEM (n=9-12 culture wells per condition), scaled to mean LDH efflux value 24 hr after sham wash (=0) and continuous exposure to 500 μM NMDA (=100). *, Significant difference from the vehicle control, p<0.05 using ANOVA and Student-Neuman-Keuls' test.
For mixed neuron-glia culture, mouse cerebral cortices were removed from brains of the 14-16 day-old-fetal mice (E14-16), gently triturated and plated on 24 well plates (2×10^5 cells/plate) precoated with 100 μg/ml poly-D-lysine and 4 μg/ml laminine. Cultures were maintained at 37° C. in a humidified 5% CO2 atmosphere. Plating media consist of Eagles minimal essential media (MEM, Earles salts, supplied glutamine-free) supplemented with 5% horse serum, 5% fetal bovine serum, 26.5 mM bicarbonate, 2 mM glutamine, and 21 mM glucose.
After 7-8 days in vitro (DIV 7-8), 10 μM cytosine arabinofuranoside (Ara-C) was included to halt overgrowth of glia. The drug treatment was carried on DIV 12-15 cortical cell culture. Overall neuronal cell injury was assessed by measuring amount of lactate dehydrogenase (LDH) released into the bathing medium 24 hr after neurotoxic insults as previously described [Koh and Choi, J Neurosci Methods 20:83-90, 1987].
Mixed cortical cell cultures were continuously exposed to 5 μM SNP, a nitric oxide (NO) donor, alone or with inclusion of 0.1-10 μM 2-Hydroxy-TTBA, 1-10 μM trolox or 100-10,000 μM aspirin. Neuronal cell death was analyzed 24 hr later by LDH assay. *, Significant difference from the vehicle control (SNP), p<0.05 using ANOVA and Student-Neuman-Keuls' test.

Entries after “also recorded” stand apart in the source; their conditions may differ. Like-named read-outs stand apart in the source and are kept apart here.

Regarding `O=C(O)c1cc(NCc2c(F)c(F)c(C(F)(F)F)c(F)c2F)ccc1O` [2-Hydroxy-TTBA, 2-hydroxy-5-(2,3,5,6-tetrafluoro-4-trifluoromethylbenzylamino)benzoic acid], the “effect on holding currents” value in experiment [1] (100 μM compound alone) is on record as “had no effect on the holding currents”. Also, the “effect of pretreatment on response to subsequent 300 μM NMDA” value in experiment [1] (100 μM compound applied alone, then 300 μM NMDA, n=6) was “did not influence NMDA-induced inward currents; also recorded: had little effect”. Moreover, the “Hill coefficient of dose response relation to NMDA currents” value in experiment [1] (300 μM NMDA, neurons held at −60 mV, n=8) was 0.91. For the same compound, the IC50 – broadly, the point on the concentration scale where inhibition reaches its midpoint – in experiment [1] (300 μM NMDA, neurons held at −60 mV, n=8, read-out: IC50 for NMDA currents (FIG. 2a legend)) was around 35 µM. In addition, in experiment [1] (300 μM NMDA, neurons held at −70 mV, bath application, n=7-15 neurons/condition, read-out: IC50 for depression of NMDA-evoked currents), the 50% inhibitory concentration (IC50) turned out to be 30.6 ± 2.96 µM. Also, the “degeneration of dopaminergic neurons in substantia nigra, 3 d” value in experiment [2] (3 d) is given as “significantly attenuated degeneration”. Besides, the “protective effects on dopaminergic neurons, 7 d” value in experiment [2] (7 d) is “protective effects of 2-Hydroxy-TTBA are also observed”. For the same compound, in experiment [3], the “effect on SNP toxicity” value is listed as “completely blocked” and the “strength relative to trolox in preventing NO toxicity” value is recorded as 100 fold.
